Measured values published in US20090304654A1, “METHODS FOR ISOLATING ADIPOSE-DERIVED STEM CELLS AND THERAPEUTIC USE THEREOF” (REGENTS OF THE UNIVERSITY OF CALIFORNIA, priority 2008, published 2009).

Test system: RADSC-1 cells
Test: Endothelial-inducing factors: LDL-uptake and endothelial markers of ADSC in subtraction/addition media and with FGFR inhibitor
Format: cell-based, rat
Settings: for LDL-uptake ability in EBM2 supplemented with the factor: one week in addition media; for LDL-uptake ability on omission of the factor from EGM2: one week in subtraction EGM2
Procedure: RADSC-1 cells were grown in fully or partially supplemented EGM2 and then assayed for LDL-uptake. Each partially supplemented EGM2 is indicated by the omitted factor; for example, “−FGF” denotes EGM2 without FGF2. Experiments were repeated 3 times.
RADSC-1 cells were grown in EGM2, EBM2, or EBM2 supplemented with the indicated factor, and then assayed for LDL-uptake. Experiments were repeated 3 times.
RADSC-1 cells were grown in EGM2 or EBM2 supplemented with FGF2 and vitamin C in the presence or absence of FGFR inhibitor PD173074. The cells were then assayed for LDL-uptake. Red color indicates the presence of LDL, which was in a conjugated form with the red fluorescence dye DiI. RADSC-1 cells were also grown in VEGF/vitamin C-supplemented EBM2 for the purpose of excluding the involvement of VEGF signaling, as PD173074 is known to have a weak inhibitory effect on VEGF receptor. Experiments were repeated 3 times.
EGM2 medium is supplied by the manufacturer in the form of a basal medium (EBM2) and individual vials of supplemental factors. […] Specifically, we prepared “subtraction” EGM2 media by omitting one supplemental factor at a time.
The above experiments identified FGF2 as the only growth factor required for the induction of ADSC's LDL-uptake ability. We then tested whether FGF2 was able to induce the expression of additional endothelial characteristics. RADSC-1 cells were grown in DMEM, EGM2, or EBM2 supplemented with FGF2 and vitamin C. They were then stained for endothelial markers CD31, vWF, and eNOS, and tested for tube formation.
In the absence of PD173074 (with the addition of solvent only), cells grown in either the completely supplemented EGM2 or the FGF2/vitamin C-supplemented EBM2 acquired the LDL-uptake ability (FIG. 23).

## O=C1O[C@H]([C@@H](O)CO)C(O)=C1O [vitamin C]
  LDL-uptake ability in EBM2 supplemented with the factor: still somewhat effective, but at a much reduced level
  LDL-uptake ability on omission of the factor from EGM2: greatly diminished LDL-uptake ability

## FGF2: growth factor supplement of EGM2
  LDL-uptake ability in EBM2 supplemented with the factor: still effective, albeit at a reduced level
  LDL-uptake ability on omission of the factor from EGM2: greatly diminished LDL-uptake ability

## VEGF
  LDL-uptake ability on omission of the factor from EGM2: essentially no effect

## C[C@]12CCC(=O)C=C1CC[C@@H]1[C@@H]2[C@@H](O)C[C@@]2(C)[C@H]1CC[C@]2(O)C(=O)CO [hydrocortisone]
  LDL-uptake ability on omission of the factor from EGM2: essentially no effect

## heparin
  LDL-uptake ability on omission of the factor from EGM2: essentially no effect

## CCN(CC)CCCCNc1ncc2cc(-c3cc(OC)cc(OC)c3)c(NC(=O)NC(C)(C)C)nc2n1 [PD173074]
Cells in EGM2 or FGF2/vitamin C-supplemented EBM2
  acquisition of LDL-uptake ability in the presence of inhibitor: unable to do so

## EGF: epidermal growth factor, supplement of EGM2 (NSDSECPLSHDGYCLHDGVCMYIEALDKYACNCVVGYIGERCQYRDLKWWELR; UniProt P01133 971-1023, looked up)
  LDL-uptake ability on omission of the factor from EGM2: essentially no effect
